In ChEMBL document CHEMBL4364273, “Discovery of SHR1653, a Highly Potent and Selective OTR Antagonist with Improved Blood-Brain Barrier Penetration” (ACS Med Chem Lett, 2019):
Values after ≈ are worked out from the molar mass of the structure shown.

Experiments:
[1] = biological target: T1, Oxytocin receptor (Homo sapiens, UniProt P30559); experiment: Antagonist activity at human OTR expressed in HEK293 cells assessed as decrease in calcium flux measured after 10 mins in […] by Fluo-4 dye based microplate reader based assay; type: functional, cell-based
T1 sequence (P30559 whole entry): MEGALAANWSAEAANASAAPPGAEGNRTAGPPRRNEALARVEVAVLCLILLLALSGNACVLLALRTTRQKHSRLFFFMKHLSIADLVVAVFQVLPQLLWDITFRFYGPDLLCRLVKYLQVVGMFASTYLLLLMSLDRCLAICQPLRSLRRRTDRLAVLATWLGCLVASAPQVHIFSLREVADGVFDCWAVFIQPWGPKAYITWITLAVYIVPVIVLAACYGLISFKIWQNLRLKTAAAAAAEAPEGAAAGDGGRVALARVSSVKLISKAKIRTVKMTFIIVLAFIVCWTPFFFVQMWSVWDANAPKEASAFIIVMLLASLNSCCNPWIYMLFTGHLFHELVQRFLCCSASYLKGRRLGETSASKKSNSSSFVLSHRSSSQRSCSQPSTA

[2] = Cmax in Sprague-Dawley rat at 2 mg/kg, po measured for 24 hrs by LC-MS/MS analysis; type: ADME, organism-based; parameters: dose 2 mg/kg, route oral; settings: in vivo
[3] = Clearance in Sprague-Dawley rat at 1 mg/kg, iv measured for 24 hrs by LC-MS/MS analysis; type: ADME, organism-based; settings: in vivo
[4] = Solubility of compound in PBS at pH 7.4; type: physicochemical
[5] = Hepatic clearance in human liver microsomes by LC-MS/MS analysis; type: ADME, Microsome
[6] = Hepatic clearance in dog liver microsomes by LC-MS/MS analysis; type: ADME, Canis lupus familiaris, Microsome
[7] = Hepatic clearance in mouse liver microsomes by LC-MS/MS analysis; type: ADME, Microsome
[8] = biological target: Voltage-gated inwardly rectifying potassium channel KCNH2 (Homo sapiens, UniProt Q12809); experiment: Inhibition of human ERG
Sequence of Voltage-gated inwardly rectifying potassium channel KCNH2 (Q12809 whole entry): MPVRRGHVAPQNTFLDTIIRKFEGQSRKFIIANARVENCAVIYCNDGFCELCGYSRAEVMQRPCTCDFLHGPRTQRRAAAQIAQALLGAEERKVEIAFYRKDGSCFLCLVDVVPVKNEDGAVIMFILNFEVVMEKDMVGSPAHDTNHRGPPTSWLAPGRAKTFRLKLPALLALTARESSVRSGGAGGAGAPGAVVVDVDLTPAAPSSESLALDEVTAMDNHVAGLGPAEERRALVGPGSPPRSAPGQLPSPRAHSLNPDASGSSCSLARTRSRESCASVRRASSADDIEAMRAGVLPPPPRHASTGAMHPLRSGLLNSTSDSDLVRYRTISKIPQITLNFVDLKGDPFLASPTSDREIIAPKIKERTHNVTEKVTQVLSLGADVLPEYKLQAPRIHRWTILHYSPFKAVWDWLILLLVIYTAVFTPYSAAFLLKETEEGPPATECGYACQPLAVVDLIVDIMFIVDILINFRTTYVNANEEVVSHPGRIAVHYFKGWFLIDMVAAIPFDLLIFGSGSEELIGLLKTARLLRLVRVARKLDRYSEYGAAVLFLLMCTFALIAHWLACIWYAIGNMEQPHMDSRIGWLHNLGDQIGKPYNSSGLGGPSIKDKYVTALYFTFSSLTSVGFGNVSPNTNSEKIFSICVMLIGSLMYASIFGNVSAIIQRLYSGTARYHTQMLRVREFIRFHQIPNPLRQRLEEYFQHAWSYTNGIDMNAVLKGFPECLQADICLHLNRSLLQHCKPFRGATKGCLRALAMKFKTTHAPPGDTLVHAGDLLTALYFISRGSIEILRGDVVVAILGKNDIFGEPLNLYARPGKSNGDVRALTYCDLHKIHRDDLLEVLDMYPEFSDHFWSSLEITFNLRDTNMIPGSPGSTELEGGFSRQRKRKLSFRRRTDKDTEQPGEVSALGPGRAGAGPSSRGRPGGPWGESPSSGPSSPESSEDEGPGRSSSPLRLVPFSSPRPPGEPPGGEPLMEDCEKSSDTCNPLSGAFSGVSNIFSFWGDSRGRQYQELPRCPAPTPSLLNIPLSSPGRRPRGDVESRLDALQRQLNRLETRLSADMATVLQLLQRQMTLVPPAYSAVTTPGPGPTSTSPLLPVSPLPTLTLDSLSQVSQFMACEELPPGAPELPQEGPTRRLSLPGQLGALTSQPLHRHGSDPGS

[9] = Acute toxicity in rat assessed as increase in urinary output at 900 mg/kg measured for 7 days; type: organism-based; settings: in vivo, 168 h
[10] = Acute toxicity in rat assessed as effect on body weight at up to 300 mg/kg measured for 7 days; type: organism-based; settings: in vivo, 168 h
[11] = Acute toxicity in rat; settings: in vivo
[12] = Acute toxicity in rat assessed as effect on hematological parameters up to 300 mg/kg measured for 7 days; type: organism-based; settings: in vivo, 168 h
[13] = biological target: T2, Cytochrome P450 1A2 (Homo sapiens, UniProt P05177); experiment: Inhibition of human recombinant CYP1A2; type: ADME
T2 sequence (P05177 whole entry): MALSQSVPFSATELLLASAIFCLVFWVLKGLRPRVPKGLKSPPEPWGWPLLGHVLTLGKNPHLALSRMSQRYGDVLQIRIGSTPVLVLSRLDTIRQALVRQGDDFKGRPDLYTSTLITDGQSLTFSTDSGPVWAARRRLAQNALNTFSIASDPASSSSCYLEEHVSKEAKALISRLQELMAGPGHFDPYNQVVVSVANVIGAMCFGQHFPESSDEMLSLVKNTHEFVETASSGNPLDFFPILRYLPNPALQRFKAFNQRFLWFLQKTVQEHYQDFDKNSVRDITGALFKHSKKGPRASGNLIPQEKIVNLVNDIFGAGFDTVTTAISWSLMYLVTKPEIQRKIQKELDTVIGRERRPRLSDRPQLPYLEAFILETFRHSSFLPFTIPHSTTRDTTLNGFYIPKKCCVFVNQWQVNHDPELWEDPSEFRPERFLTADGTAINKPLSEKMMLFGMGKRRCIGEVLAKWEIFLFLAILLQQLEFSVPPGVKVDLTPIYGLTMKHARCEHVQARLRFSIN

[14] = biological target: Cytochrome P450 2C9 (Homo sapiens, UniProt P11712); experiment: Inhibition of human recombinant CYP2C9; type: ADME
Sequence of Cytochrome P450 2C9 (P11712 whole entry): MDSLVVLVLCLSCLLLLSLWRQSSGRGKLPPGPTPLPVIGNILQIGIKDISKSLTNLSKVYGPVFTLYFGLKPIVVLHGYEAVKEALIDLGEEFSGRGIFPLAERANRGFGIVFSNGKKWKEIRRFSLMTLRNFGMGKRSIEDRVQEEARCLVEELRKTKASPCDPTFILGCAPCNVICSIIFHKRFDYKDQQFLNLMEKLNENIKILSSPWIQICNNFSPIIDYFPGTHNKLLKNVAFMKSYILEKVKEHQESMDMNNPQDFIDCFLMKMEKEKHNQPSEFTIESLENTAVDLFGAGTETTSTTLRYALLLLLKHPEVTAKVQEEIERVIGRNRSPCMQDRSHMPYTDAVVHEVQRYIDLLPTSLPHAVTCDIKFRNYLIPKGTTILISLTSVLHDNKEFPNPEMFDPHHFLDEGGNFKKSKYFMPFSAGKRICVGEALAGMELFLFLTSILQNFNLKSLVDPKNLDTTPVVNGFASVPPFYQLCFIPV

[15] = Lipophilicity, log D of compound at pH 7.4; type: physicochemical; settings: buffer
[16] = Unbound fraction in Sprague-Dawley rat brain by LC-MS/MS analysis; type: ADME, tissue-based
[17] = Tmax in Sprague-Dawley rat at 30 mg/kg, po measured for 24 hrs by LC-MS/MS analysis; type: ADME, organism-based; settings: in vivo
[18] = Tmax in Beagle dog at 2 mg/kg, po measured for 24 hrs by LC-MS/MS analysis; type: ADME, organism-based, Canis lupus familiaris; settings: in vivo
[19] = Cmax in Sprague-Dawley rat at 30 mg/kg, po measured for 24 hrs by LC-MS/MS analysis; type: ADME, organism-based; parameters: dose 30 mg/kg, route oral; settings: in vivo
[20] = Cmax in Sprague-Dawley rat at 150 mg/kg, po measured for 24 hrs by LC-MS/MS analysis; type: ADME, organism-based; parameters: dose 150 mg/kg, route oral; settings: in vivo
[21] = Cmax in Beagle dog at 20 mg/kg, po measured for 24 hrs by LC-MS/MS analysis; type: ADME, organism-based, Canis lupus familiaris; parameters: dose 20 mg/kg, route oral; settings: in vivo
[22] = AUC (0 to 24 hrs) in nude mouse at 4 mg/kg, po by LC-MS/MS analysis; type: ADME, organism-based; parameters: time < 24 hr, dose 4 mg/kg, route oral; settings: in vivo
[23] = AUC (0 to 24 hrs) in Sprague-Dawley rat at 30 mg/kg, po by LC-MS/MS analysis; type: ADME, organism-based; parameters: dose 30 mg/kg, time < 24 hr, route oral; settings: in vivo
[24] = AUC (0 to 24 hrs) in Beagle dog at 2 mg/kg, po by LC-MS/MS analysis; type: ADME, organism-based, Canis lupus familiaris; parameters: time < 24 hr, dose 2 mg/kg, route oral; settings: in vivo
[25] = Half-life in Sprague-Dawley rat at 30 mg/kg, po measured for 24 hrs by LC-MS/MS analysis; type: ADME, organism-based; settings: in vivo
[26] = Half-life in Sprague-Dawley rat at 150 mg/kg, po measured for 24 hrs by LC-MS/MS analysis; type: ADME, organism-based; settings: in vivo
[27] = Half-life in Beagle dog at 20 mg/kg, po measured for 24 hrs by LC-MS/MS analysis; type: ADME, organism-based, Canis lupus familiaris; settings: in vivo
[28] = tested on: Rattus norvegicus; experiment: Anti-premature ejaculation activity in anesthetized oxytocin-induced uterine contraction Sprague-Dawley rat model assessed as decrease in intraluminal uterine pressure administered orally for 20 mins and 1 hr later treated with oxytocin and measured for 15 to 30 mins relative to control; type: functional
[29] = Clearance in Beagle dog at 1 mg/kg, iv measured for 24 hrs by LC-MS/MS analysis; type: ADME, organism-based, Canis lupus familiaris; settings: in vivo
[30] = tested on: Rattus norvegicus; experiment: Anti-premature ejaculation activity in anesthetized oxytocin-induced uterine contraction Sprague-Dawley rat model assessed as decrease in intraluminal uterine pressure at 30 mg/kg, po treated for 20 mins and 1 hr later treated with oxytocin and measured for 15 to 30 mins relative to control; type: functional
[31] = organism: Homo sapiens; experiment: Selectivity ratio of IC50 for human vasopressin V1A receptor expressed in HEK293 cells to IC50 for human OTR expressed in HEK293 cells; type: cell-based
[32] = organism: Homo sapiens; experiment: Selectivity ratio of IC50 for human vasopressin V1B receptor expressed in HEK293 cells to IC50 for human OTR expressed in HEK293 cells; type: cell-based
[33] = AUC (0 to 24 hrs) in anesthetized oxytocin-induced uterine contraction Sprague-Dawley rat model at 30 mg/kg, po; type: ADME, organism-based; parameters: dose 30 mg/kg, time < 24 hr, route oral; settings: in vivo
[34] = Safety index, ratio of NOAEL in rat to EC50 for inhibition of oxytocin-induced contractile response in po dosed Sprague-Dawley rat; type: toxicity, organism-based; settings: in vivo
[35] = Acute toxicity in rat assessed as effect on blood chemistry parameters up to 300 mg/kg measured for 7 days; type: organism-based; settings: in vivo, 168 h
[36] = Acute toxicity in rat assessed as effect on clinical parameters up to 300 mg/kg measured for 7 days; type: organism-based; settings: in vivo, 168 h

COCc1nnc(N2C[C@@H]3C[C@]3(c3ccc(F)cc3Cl)C2)n1-c1ccc(OC)nc1
IC50 [1]: 0.015 µM
Cmax [2]: 350 ng/mL
clearance [3]: 16.1 mL/min/kg
solubility [4]: 420 µM (≈ 180 µg/mL)
CLhep predicted [5]: 14.8 mL/min/kg
CLhep predicted [6]: 20.3 mL/min/kg
CLhep predicted [7]: 77.4 mL/min/kg
IC50 [8]: 16 µM
Activity [9]: Toxic
Activity [10]: Non-Toxic
MTD [11]: > 900 mg/kg
NOAEL [11]: 300 mg/kg
Activity [12]: Non-Toxic
IC50 [13]: > 30 µM
IC50 [14]: > 30 µM
logD [15]: 2.86
fraction unbound [16]: 0.0166
Tmax [17]: 0.63 h
Tmax [18]: 0.75 h
Cmax [19]: 3300 ng/mL
Cmax [20]: 14000 ng/mL
Cmax [21]: 13500 ng/mL
AUC(0-t) at 24 h [22]: 548 ng·h/mL
AUC(0-t) at 24 h [23]: 16100 ng·h/mL
AUC(0-t) at 24 h [24]: 3830 ng·h/mL
half-life [25]: 2.23 h
half-life [26]: 3.24 h
half-life [27]: 3.38 h
ED [28]: 30 mg/kg
inhibition [28]: Dose-dependent effect
clearance [29]: 7.2 mL/min/kg
inhibition in vivo at 30 mg/kg [30]: 65%
Ratio IC50 [31]: 192
Ratio IC50 [32]: 2500
AUC(0-t) at 24 h [33]: 28300 ng·h/mL
selectivity ratio [34]: 10
Activity [35]: Non-Toxic
Activity [36]: Non-Toxic
